Results as given in paper PMC3517478 (BMC Neurology, 2012).
Numbering of substitutions follows the chain as printed. “And” between values parts separate entries of the source, which are not always exact repeats. Identical values can stand only once.

Experiments:
[1] = biological target: T1, human α1R271L-GlyR expressed in HEK 293 cells (Homo sapiens, UniProt P23415, R299L); settings: R271L
T1 sequence (P23415 29-457 R299L): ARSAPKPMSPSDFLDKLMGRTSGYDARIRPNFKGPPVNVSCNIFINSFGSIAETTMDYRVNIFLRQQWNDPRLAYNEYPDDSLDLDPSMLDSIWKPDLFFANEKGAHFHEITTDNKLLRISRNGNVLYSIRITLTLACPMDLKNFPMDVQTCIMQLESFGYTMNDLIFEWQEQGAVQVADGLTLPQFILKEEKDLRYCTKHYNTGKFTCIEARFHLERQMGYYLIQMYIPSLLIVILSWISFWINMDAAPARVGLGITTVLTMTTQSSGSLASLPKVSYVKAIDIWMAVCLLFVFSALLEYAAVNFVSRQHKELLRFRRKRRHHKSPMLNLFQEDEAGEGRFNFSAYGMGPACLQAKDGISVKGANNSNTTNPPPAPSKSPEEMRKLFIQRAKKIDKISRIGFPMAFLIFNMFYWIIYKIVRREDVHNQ
Source text: Human α1-, α1R271Q-, α1R271L-, α1R271K and α1S267I-GlyR subunits were transiently transfected into human embryonic kidney cells (HEK 293, ATCC, Manassas, USA). The wild type α1-GlyR -cDNA was cloned in pCIS2 (Invitrogen, San Diego, USA) vector and provided by Prof. Heinrich Betz (Max-Planck-Institut für Hirnforschung, Frankfurt am Main, Germany). For the plasmid cDNA of the mutated α1R271Q-, α1R271L-, α1R271K- and α1S267I-GlyR the eukaryotic expression vector pcDNA1amp (Invitrogen, San Diego, USA), under the control of cytomegalovirus promoter, was used. For site-directed mutagenesis, single stranded template cDNA was synthesized from M13 origin of replication and the mutations of arginine residue (R) at position 271 to glutamine (R271Q), leucine (R271L) or lysine (R271K) and mutation of serine residue (S) at position 267 to isoleucine (S267I) were generated using standard procedures. […] Wild type and mutated α1-GlyR subunits efficiently form homomeric receptors in heterologous expression systems.
HEK 293 cells were cultured in medium containing HAMS’F-12 (Biochrom, Berlin, Germany), supplemented with 10% fetal bovine serum (FBS, Biochrom, Berlin, Germany), 100 U ml^–1 penicillin and 100μgml^–1 streptomycin (Gibco BRL, Life Technologies, Karlsruhe, Germany) at 37°C in a 5% CO2/ 95% air incubator. For transfection cells were suspended in a buffer containing 50mM K2HPO4 (Fluka BioChemika, Seelze, Germany), 20mMK-acetate (Sigma-Aldrich, Taufkirchen, Germany) and 25mM MgSO4 (Sigma-Aldrich, Taufkirchen, Germany) at pH 7.35. To visualize transfected cells, they were co-transfected with cDNA encoding for enhanced green fluorescent protein (EGFP) contained in the pEGFP-N1 expression vector (Clontech, Palo Alto, USA). The corresponding cDNA (5μg for the GlyR and 2.5μg for EGFP) was added to 400μl of the cell suspension and the mixture was rapidly transferred into the electroporation cuvette. For transfection we used an electroporation device by EquiBio (Kent, UK) and a 4mm aluminum electrode electroporation cuvette (Peqlab, Erlangen, Germany).
The phenol derivative 4-chloropropofol ([…]) was provided as pure substance by Prof. Paul M. O’Neill (University of Liverpool, England), prepared as light-protected 1M stock solution in ethanol (EtOH, J.T.Baker, Griesheim, Germany) and stored in glass vessels at −20°C.
Drug-containing vials were vigorously vortexed for 30min. Patch electrodes were filled with an intracellular solution of [mM] KCl 140, MgCl2 2, EGTA 11, HEPES 10, glucose 11, CaCl2 1 with pH 7.3, adjusted with 1 M KOH and a bath solution contained [mM] NaCl 162, KCl 5.31, NaHPO4 0.85, KH2PO4 0.22, HEPES 15, glucose 6.11, pH 7.4 adjusted with 1 M NaOH. Osmolarity of both solutions was set at 280–300 mOsmol.
Whole-cell experiments were performed at a holding potential of −30 mV with a mean seal resistance of 1 GΩ. […] A fast liquid filament switch technique was used for the application of the agonist, presented in pulses of 2 s duration every 20 s. The liquid filament switch technique is able to exchange the solution passing an outside-out patch or small whole-cells within 1–2 ms. We calculated flow rate of background solution through the chamber with 3,4 ml/min corresponding to 4% of maximal pump rate. With regard to the chamber volume of 100 μl the exchange solution time within the chamber was assessed to approximately […], dependent on cell size accordingly. Piezo-switch and small diameter capillary (ID 0.15 mm) within the measurement chamber promoted the millisecond solution exchange. […] The induced current (I) by this saturating control solution was defined as Icontrol. […] The stability of the seal was controlled during the complete experiment via control of the seal resistance. A variation of 10-20% of the basic value was regarded as tolerable.

[2] = biological target: T2, human α1S267I-GlyR expressed in HEK 293 cells (Homo sapiens, UniProt P23415, S295I); assay: Whole-cell patch-clamp, positive allosteric modulation of glycine (EC20) induced currents; format: cell-based; design: expressed in transfected cells; host or cells: HEK 293 (transient, electroporation; pcDNA1amp vector); settings: S267I
T2 sequence (P23415 29-457 S295I): T1 sequence (P23415 29-457 R299L) with S267I, L271R
Method: Drug-containing vials were vigorously vortexed for 30min.
A new cell was used for each protocol and at least four different experiments were performed for each condition. The concentration of the diluent EtOH corresponding to the highest drug concentration used was 17150 μM.
Currents were filtered at 2 kHz.
Currents were normalized to their own maximum response.

NCC(=O)O [glycine]
Current amplitude [% of mean WT current amplitude] ± SEM [1]: 20.5±12% | nH ± SEM (Hill coefficient), glycine activation [1]: 1.8±0.7 | Rise time ± SEM ([1]; 10-90% of Imax, monoexponential fit): 998 ± 129 ms | Mean current amplitude ± SEM ([1]; saturating glycine 300 mM): 336±51 pA

4-chloro-2,6-dimethylphenol [4-chloropropofol]
positive allosteric modulation nH ± SEM ([2]; EC20 glycine 30 μM): 0.7 ± 0.3 | EC50 ([2]; co-applied with sub-saturating (EC20) glycine 30 μM, read-out: positive allosteric modulation EC50 ± SEM): 55 µM and 55.1 µM | positive allosteric modulation, potentiation [% of peak current amplitude] ± SEM ([2]; maximal positive allosteric modulation, EC20 glycine 30 μM): 128 ± 14%
